According to PubChem BioAssay (NCI):
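A five-concentration, 48-hour dose response in 96-well plates underlies each endpoint, interpolated linearly between surrounding concentrations. At the GI50, growth is halved. At the TGI there is no net growth.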

Assays:
Test in all cases: inhibition of tumour cell growth, NCI panel, 48 h
[1] = tested on: RXF 393 renal
[2] = tested on: MDA-MB-435
[3] = tested on: NCI-H23 lung
[4] = tested on: HL-60(TB) leukemia
[5] = tested on: IGROV1 ovarian
[6] = tested on: NCI/ADR-RES ovarian
[7] = tested on: SN12C renal
[8] = tested on: OVCAR-4 ovarian
[9] = tested on: DU-145 prostate
[10] = tested on: SK-OV-3 ovarian
[11] = tested on: OVCAR-8 ovarian
[12] = tested on: OVCAR-3 ovarian
[13] = tested on: LOX IMVI melanoma
[14] = tested on: HCT-116 colon
[15] = tested on: UO-31 renal
[16] = tested on: A549 NSCLC
[17] = tested on: NCI-H522 lung
[18] = tested on: NCI-H226 lung
[19] = tested on: NCI-H460 lung
[20] = tested on: SF-539 CNS
[21] = tested on: U251 CNS
[22] = tested on: MDA-MB-468 breast
[23] = tested on: TK-10 renal
[24] = tested on: SNB-75 CNS
[25] = tested on: RPMI-8226 leukemia
[26] = tested on: BT-549 breast
[27] = tested on: COLO 205 colon
[28] = tested on: HOP-92 NSCLC
[29] = tested on: HS 578T breast
[30] = tested on: MOLT-4 leukemia
[31] = tested on: HCC-2998 colon
[32] = tested on: M14 melanoma
[33] = tested on: SK-MEL-2 melanoma
[34] = tested on: CCRF-CEM leukemia
[35] = tested on: SNB-19 CNS
[36] = tested on: PC-3 prostate
[37] = tested on: T-47D breast
[38] = tested on: SW-620 colon
[39] = tested on: SK-MEL-28 melanoma
[40] = tested on: SF-295 CNS
[41] = tested on: HOP-62 NSCLC
[42] = tested on: SR leukemia
[43] = tested on: SF-268 CNS
[44] = tested on: CAKI-1 renal
[45] = tested on: UACC-257 melanoma
[46] = tested on: KM12 colon
[47] = tested on: ACHN renal
[48] = tested on: OVCAR-5 ovarian
[49] = tested on: EKVX NSCLC
[50] = tested on: UACC-62 melanoma
[51] = tested on: A498 renal
[52] = tested on: SK-MEL-5 melanoma
[53] = tested on: 786-0 renal
[54] = tested on: HCT-15 colon
[55] = tested on: HT29 colon
[56] = tested on: K-562 leukemia
[57] = tested on: MDA-MB-231 breast
[58] = tested on: MCF7 breast
[59] = tested on: MALME-3M melanoma

Work on N/C(=N\c1nc2ccccc2s1)NC(=O)Nc1ccc(Cl)cc1Cl yielded a GI50 [1] of 0.357 µM, a TGI [1] of 1.69 µM and a GI50 [2] of 0.16 µM. For the same molecule, the TGI [2] was 0.51 µM, the GI50 [3] was 0.835 µM and the TGI [3] was 2.44 µM. The GI50 [4] was 0.295 µM, the GI50 [5] was 0.558 µM and the TGI [5] was 2.35 µM. For the same molecule, the GI50 [6] was 0.269 µM, the TGI [6] was 0.937 µM and the GI50 [7] was 0.566 µM. For the same molecule, the TGI [7] was 2.21 µM, the GI50 [8] was 1.53 µM and the TGI [8] was 5.07 µM. It also gave a GI50 [9] of 1 µM, a TGI [9] of 3.06 µM and a GI50 [10] of 0.434 µM. For the same molecule, the TGI [10] was 2.21 µM, the GI50 [11] was 0.766 µM and the TGI [11] was 4.61 µM. It also gave a GI50 [12] of 0.359 µM, a TGI [12] of 1.34 µM and a GI50 [13] of 0.567 µM. The TGI [13] was 1.96 µM, the GI50 [14] was 0.384 µM and the TGI [14] was 1.51 µM. The GI50 [15] was 0.503 µM, the TGI [15] was 1.96 µM and the GI50 [16] was 0.878 µM. The TGI [16] was 2.84 µM, the GI50 [17] was 0.194 µM and the TGI [17] was 0.787 µM. The GI50 [18] was 0.948 µM, the TGI [18] was 2.68 µM and the GI50 [19] was 0.419 µM. The TGI [19] was 1.51 µM, the GI50 [20] was 0.261 µM and the TGI [20] was 0.842 µM. The GI50 [21] was 0.458 µM, the TGI [21] was 1.75 µM and the GI50 [22] was 0.271 µM. It also gave a TGI [22] of 0.788 µM, a GI50 [23] of 1.91 µM and a TGI [23] of 4.28 µM. The GI50 [24] was 0.23 µM, the TGI [24] was 0.997 µM and the GI50 [25] was 1.12 µM. The TGI [25] was 8.96 µM, the GI50 [26] was 0.414 µM and the TGI [26] was 5.04 µM. For the same molecule, the GI50 [27] was 0.491 µM, the TGI [27] was 1.78 µM and the GI50 [28] was 0.923 µM. The TGI [28] was 3.91 µM, the GI50 [29] was 0.289 µM and the TGI [29] was 2.43 µM. The GI50 [30] was 0.536 µM, the GI50 [31] was 0.978 µM and the TGI [31] was 2.86 µM. The GI50 [32] was 0.39 µM, the TGI [32] was 1.84 µM and the GI50 [33] was 0.351 µM. The TGI [33] was 1.17 µM, the GI50 [34] was 0.36 µM and the TGI [34] was 3.8 µM. The GI50 [35] was 0.672 µM, the TGI [35] was 5.54 µM and the GI50 [36] was 0.753 µM. It also gave a TGI [36] of 3.89 µM, a GI50 [37] of 0.421 µM and a TGI [37] of 6.42 µM. The GI50 [38] was 0.455 µM, the TGI [38] was 2.46 µM and the GI50 [39] was 1.04 µM. The TGI [39] was 5.67 µM, the GI50 [40] was 0.334 µM and the TGI [40] was 1.31 µM. For the same molecule, the GI50 [41] was 0.397 µM, the TGI [41] was 1.81 µM and the GI50 [42] was 0.952 µM. For the same molecule, the GI50 [43] was 1.16 µM, the TGI [43] was 23 µM and the GI50 [44] was 0.389 µM. The TGI [44] was 2.21 µM, the GI50 [45] was 2.07 µM and the TGI [45] was 17.7 µM. The GI50 [46] was 0.439 µM, the TGI [46] was 3.6 µM and the GI50 [47] was 0.574 µM. It also gave a TGI [47] of 2.08 µM, a GI50 [48] of 0.948 µM and a TGI [48] of 3.09 µM. It also gave a GI50 [49] of 0.489 µM, a TGI [49] of 2.66 µM and a GI50 [50] of 0.374 µM. The TGI [50] was 3.2 µM, the GI50 [51] was 1.64 µM and the TGI [51] was 3.73 µM. The GI50 [52] was 0.352 µM, the TGI [52] was 1.71 µM and the GI50 [53] was 0.456 µM. The TGI [53] was 1.76 µM, the GI50 [54] was 0.379 µM and the TGI [54] was 1.98 µM. For the same molecule, the GI50 [55] was 0.341 µM, the TGI [55] was 1.15 µM and the GI50 [56] was 0.37 µM. For the same molecule, the GI50 [57] was 0.571 µM, the TGI [57] was 2.18 µM and the GI50 [58] was 0.309 µM. The TGI [58] was 1.78 µM, the GI50 [59] was 0.454 µM and the TGI [59] was 2.13 µM.
For O=C(N/C(=C1/OCCN1Cc1ccccc1)[P+](c1ccccc1)(c1ccccc1)c1ccccc1)c1ccccc1, the GI50 [1] was 2.46 µM, the TGI [1] was 10.3 µM and the GI50 [2] was 3.2 µM. The TGI [2] was 12 µM, the GI50 [3] was 3.16 µM and the TGI [3] was 13.3 µM. The GI50 [4] was 1.78 µM, the TGI [4] was 5.46 µM and the GI50 [5] was 2.47 µM. The TGI [5] was 9.71 µM, the GI50 [6] was greater than 100 µM and the TGI [6] was greater than 100 µM. It also gave a GI50 [7] of 3.34 µM, a TGI [7] of 11.7 µM and a GI50 [8] of 5 µM. For the same molecule, the TGI [8] was 21.8 µM, the GI50 [9] was 4.46 µM and the TGI [9] was 17.4 µM. The GI50 [10] was 10.3 µM, the TGI [10] was 27.2 µM and the GI50 [11] was 4.25 µM. The TGI [11] was 16.9 µM, the GI50 [12] was 2.78 µM and the TGI [12] was 10.8 µM. The GI50 [13] was 4.12 µM, the TGI [13] was 15.1 µM and the GI50 [14] was 3.09 µM. It also gave a TGI [14] of 12.9 µM, a GI50 [15] of 15.5 µM and a TGI [15] of 29.1 µM. For the same molecule, the GI50 [16] was 15.1 µM, the TGI [16] was 54.4 µM and the GI50 [17] was 1.83 µM. The TGI [17] was 6.36 µM, the GI50 [18] was 3.91 µM and the TGI [18] was 15.6 µM. The GI50 [19] was 3.71 µM, the TGI [19] was 14.6 µM and the GI50 [20] was 6.59 µM. It also gave a TGI [20] of 19.6 µM, a GI50 [21] of 3.24 µM and a TGI [21] of 13 µM. It also gave a GI50 [22] of 1.45 µM, a TGI [22] of 5.68 µM and a GI50 [23] of 4.06 µM. It also gave a TGI [23] of 16.8 µM, a GI50 [24] of 1.62 µM and a TGI [24] of 10.7 µM. The GI50 [25] was 1.14 µM, the TGI [25] was 3.94 µM and the GI50 [26] was 2.47 µM. The TGI [26] was 8.75 µM, the GI50 [27] was 2.66 µM and the TGI [27] was 7.46 µM. It also gave a GI50 [28] of 1.99 µM, a TGI [28] of 7.37 µM and a GI50 [29] of 3.07 µM. The TGI [29] was 20.7 µM, the GI50 [30] was 3.36 µM and the TGI [30] was 68.3 µM. The GI50 [31] was 2.68 µM, the TGI [31] was 9.86 µM and the GI50 [32] was 3.67 µM. The TGI [32] was 15.7 µM, the GI50 [33] was 2.36 µM and the TGI [33] was 6.08 µM. It also gave a GI50 [34] of 3.84 µM, a TGI [34] of 29.9 µM and a GI50 [35] of 2.79 µM. The TGI [35] was 10.7 µM, the GI50 [36] was 3.77 µM and the TGI [36] was 16.4 µM. For the same molecule, the GI50 [37] was 2.41 µM, the TGI [37] was 12.9 µM and the GI50 [38] was 4.51 µM. The TGI [38] was 17.1 µM, the GI50 [39] was 3.75 µM and the TGI [39] was 14.9 µM. The GI50 [40] was 9.92 µM, the TGI [40] was 21.9 µM and the GI50 [41] was 11.3 µM. The TGI [41] was 25 µM, the GI50 [42] was 2.7 µM and the TGI [42] was 11.6 µM. For the same molecule, the GI50 [43] was 3.41 µM, the TGI [43] was 15.7 µM and the GI50 [44] was 5.76 µM. The TGI [44] was 21.7 µM, the GI50 [45] was 2.22 µM and the TGI [45] was 5.97 µM. It also gave a GI50 [46] of 3.4 µM, a TGI [46] of 11.9 µM and a GI50 [47] of 13.4 µM. The TGI [47] was 26.5 µM, the GI50 [48] was 13.5 µM and the TGI [48] was 26.8 µM. For the same molecule, the GI50 [49] was 3.63 µM, the TGI [49] was 12.2 µM and the GI50 [50] was 2.05 µM. The TGI [50] was 6.71 µM, the GI50 [51] was 16.4 µM and the TGI [51] was 31.4 µM. It also gave a GI50 [52] of 1.58 µM, a TGI [52] of 2.93 µM and a GI50 [53] of 10.7 µM. It also gave a TGI [53] of 23.8 µM, a GI50 [54] of 15.6 µM and a TGI [54] of 30.2 µM. For the same molecule, the GI50 [55] was 6.13 µM, the TGI [55] was 29.8 µM and the GI50 [56] was 2.08 µM. It also gave a TGI [56] greater than 100 µM, a GI50 [57] of 2.1 µM and a TGI [57] of 5.81 µM. The GI50 [58] was 2.71 µM, the TGI [58] was 11.3 µM and the GI50 [59] was 1.66 µM. It also gave a TGI [59] of 3.7 µM.
